The values below come from patent US20260062387A1, “SALT-INDUCIBLE KINASE INHIBITOR COMPOUND AND PHARMACEUTICAL COMPOSITION INCLUDING THE SAME” (MITSUBISHI TANABE PHARMA CORPORATION, priority 2023, published 2026).

Format in all cases: biochemical
In one assay the target is GST-tagged SIK1 (Homo sapiens (Human), UniProt P57059). As to the kind of experiment: SIK1 inhibition test (ADP-Glo Max Assay). Particulars: enzyme 20 nM, AMARA Peptide 200 μM, ATP 1 mM, 2 hours room temperature. The procedure:
(§1) The compounds described in Examples above were used in the SIK1, SIK2, and SIK3 inhibition test.
(§2) The inhibitory activity of the compound for SIK1, SIK2, and SIK3 enzymes was assayed by measuring the amount of ADP, an enzyme reaction product, with ADP-Glo™ Max Assay (Promega). Enzymes, specifically, GST-tagged SIK1 (Carna Biosciences, Inc.), GST-tagged SIK2 (Carna Biosciences, Inc.), and GST-tagged SIK3 (SignalChem) were prepared in a reaction buffer (15 mM tris-hydrochloric acid buffer (pH 7.5), 0.001% Triton X-100, 0.01% BSA) so that the final concentration would be 20 nM, 3 nM, and 100 nM. Enzyme solutions were thus formed. In a reaction buffer, AMARA Peptide (SignalChem) as a substrate with a final concentration of 200 μM (SIK1, SIK2) or 100 μM (SIK3), ATP (Promega) with a final concentration of 1 mM, and magnesium chloride with a final concentration of 5 mM were prepared. Substrate solutions were thus formed. The enzyme solution, the substrate solution, and a DMSO solution of a concentration of the test compound were mixed together and reacted at room temperature for 2 hours. After the reaction, ADP-Glo™ Reagent (Promega) was added, and the reaction was performed at room temperature for 30 minutes. Subsequently, ADP-Glo™ Max Detection Reagent (Promega) was added, and the reaction was performed at room temperature for 30 minutes. The emission by the luciferase reaction was measured with PHERAstar FSX (BMG LABTECH).
(§3) The inhibitory ratio (%) was calculated by: % Inhibition={1−(intensity of sample−intensity of blank (no enzyme solution added))/(intensity of control (DMSO alone)−intensity of blank)}×100. The inhibitory concentration IC50 was calculated based on 16 data values obtained in the concentration response test.

The next assay addresses GST-tagged SIK2 (Homo sapiens (Human), UniProt Q9H0K1). Briefly: SIK2 inhibition test (ADP-Glo Max Assay). Particulars: enzyme 3 nM, AMARA Peptide 200 μM, ATP 1 mM, 2 hours room temperature. Here is the method:
as §1, §2, §3

The target in the next assay is GST-tagged SIK3 (Homo sapiens (Human), UniProt Q9Y2K2). Briefly: SIK3 inhibition test (ADP-Glo Max Assay). Particulars: enzyme 100 nM, AMARA Peptide 100 μM, ATP 1 mM, 2 hours room temperature. The procedure: as §1, §2, §3
Chain of GST-tagged SIK3 (Q9Y2K2 whole entry): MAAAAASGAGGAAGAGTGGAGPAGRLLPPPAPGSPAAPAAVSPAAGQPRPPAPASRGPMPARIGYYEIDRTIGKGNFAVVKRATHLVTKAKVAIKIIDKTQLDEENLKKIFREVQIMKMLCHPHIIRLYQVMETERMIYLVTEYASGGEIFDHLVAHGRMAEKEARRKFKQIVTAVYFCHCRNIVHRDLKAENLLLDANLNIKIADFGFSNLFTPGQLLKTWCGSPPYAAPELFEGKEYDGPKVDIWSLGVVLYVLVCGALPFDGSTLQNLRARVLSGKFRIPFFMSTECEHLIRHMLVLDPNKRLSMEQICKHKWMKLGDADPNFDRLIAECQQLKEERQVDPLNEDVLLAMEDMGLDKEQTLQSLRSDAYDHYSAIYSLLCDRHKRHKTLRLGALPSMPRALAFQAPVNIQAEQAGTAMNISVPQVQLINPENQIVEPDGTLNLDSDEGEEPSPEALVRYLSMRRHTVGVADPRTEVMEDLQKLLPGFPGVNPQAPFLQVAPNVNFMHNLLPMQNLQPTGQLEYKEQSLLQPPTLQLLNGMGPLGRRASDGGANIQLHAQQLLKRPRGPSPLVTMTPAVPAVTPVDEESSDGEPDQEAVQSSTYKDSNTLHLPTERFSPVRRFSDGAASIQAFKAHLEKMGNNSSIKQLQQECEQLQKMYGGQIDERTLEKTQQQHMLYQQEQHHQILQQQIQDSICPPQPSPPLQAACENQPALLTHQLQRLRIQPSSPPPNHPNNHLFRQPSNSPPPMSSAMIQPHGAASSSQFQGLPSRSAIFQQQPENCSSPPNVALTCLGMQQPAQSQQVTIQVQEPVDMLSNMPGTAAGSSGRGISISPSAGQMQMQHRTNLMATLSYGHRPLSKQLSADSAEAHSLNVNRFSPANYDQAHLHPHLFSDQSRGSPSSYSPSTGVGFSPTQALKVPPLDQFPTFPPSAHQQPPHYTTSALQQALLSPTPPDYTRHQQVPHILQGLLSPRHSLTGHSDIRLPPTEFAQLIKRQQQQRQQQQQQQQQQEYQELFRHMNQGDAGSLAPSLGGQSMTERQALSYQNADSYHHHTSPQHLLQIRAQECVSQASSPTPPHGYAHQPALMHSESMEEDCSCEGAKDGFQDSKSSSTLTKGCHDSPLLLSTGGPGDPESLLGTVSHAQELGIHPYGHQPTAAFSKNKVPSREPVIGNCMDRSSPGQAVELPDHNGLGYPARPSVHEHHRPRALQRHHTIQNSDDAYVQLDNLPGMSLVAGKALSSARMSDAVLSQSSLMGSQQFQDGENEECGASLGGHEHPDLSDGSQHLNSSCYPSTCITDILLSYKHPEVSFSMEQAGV

Chain of GST-tagged SIK2 (Q9H0K1 whole entry): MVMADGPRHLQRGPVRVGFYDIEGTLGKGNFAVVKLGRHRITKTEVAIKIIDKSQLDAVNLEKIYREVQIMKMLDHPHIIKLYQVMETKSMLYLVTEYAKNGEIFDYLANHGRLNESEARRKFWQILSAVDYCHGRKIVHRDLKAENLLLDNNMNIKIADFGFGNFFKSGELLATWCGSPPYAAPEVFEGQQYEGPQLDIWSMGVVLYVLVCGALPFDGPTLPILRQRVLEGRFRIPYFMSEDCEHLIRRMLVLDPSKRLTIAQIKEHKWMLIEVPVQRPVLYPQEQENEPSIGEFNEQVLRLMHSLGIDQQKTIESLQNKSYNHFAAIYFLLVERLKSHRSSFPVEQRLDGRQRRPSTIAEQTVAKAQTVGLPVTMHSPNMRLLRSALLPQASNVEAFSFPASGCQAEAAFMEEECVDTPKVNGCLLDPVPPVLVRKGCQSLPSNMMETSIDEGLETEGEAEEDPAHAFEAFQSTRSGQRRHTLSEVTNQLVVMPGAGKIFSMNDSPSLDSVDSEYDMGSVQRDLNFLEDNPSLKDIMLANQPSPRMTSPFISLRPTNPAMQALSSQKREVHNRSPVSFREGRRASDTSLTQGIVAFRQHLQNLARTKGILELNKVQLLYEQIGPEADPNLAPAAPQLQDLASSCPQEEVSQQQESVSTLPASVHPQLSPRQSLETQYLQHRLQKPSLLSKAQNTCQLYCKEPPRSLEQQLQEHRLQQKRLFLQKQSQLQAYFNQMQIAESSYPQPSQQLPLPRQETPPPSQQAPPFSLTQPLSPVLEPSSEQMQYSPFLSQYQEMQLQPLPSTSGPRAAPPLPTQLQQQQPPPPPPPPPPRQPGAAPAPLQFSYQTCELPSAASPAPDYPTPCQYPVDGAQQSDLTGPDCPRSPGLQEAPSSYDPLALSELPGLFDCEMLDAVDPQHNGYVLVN
Chain of GST-tagged SIK1 (P57059 whole entry): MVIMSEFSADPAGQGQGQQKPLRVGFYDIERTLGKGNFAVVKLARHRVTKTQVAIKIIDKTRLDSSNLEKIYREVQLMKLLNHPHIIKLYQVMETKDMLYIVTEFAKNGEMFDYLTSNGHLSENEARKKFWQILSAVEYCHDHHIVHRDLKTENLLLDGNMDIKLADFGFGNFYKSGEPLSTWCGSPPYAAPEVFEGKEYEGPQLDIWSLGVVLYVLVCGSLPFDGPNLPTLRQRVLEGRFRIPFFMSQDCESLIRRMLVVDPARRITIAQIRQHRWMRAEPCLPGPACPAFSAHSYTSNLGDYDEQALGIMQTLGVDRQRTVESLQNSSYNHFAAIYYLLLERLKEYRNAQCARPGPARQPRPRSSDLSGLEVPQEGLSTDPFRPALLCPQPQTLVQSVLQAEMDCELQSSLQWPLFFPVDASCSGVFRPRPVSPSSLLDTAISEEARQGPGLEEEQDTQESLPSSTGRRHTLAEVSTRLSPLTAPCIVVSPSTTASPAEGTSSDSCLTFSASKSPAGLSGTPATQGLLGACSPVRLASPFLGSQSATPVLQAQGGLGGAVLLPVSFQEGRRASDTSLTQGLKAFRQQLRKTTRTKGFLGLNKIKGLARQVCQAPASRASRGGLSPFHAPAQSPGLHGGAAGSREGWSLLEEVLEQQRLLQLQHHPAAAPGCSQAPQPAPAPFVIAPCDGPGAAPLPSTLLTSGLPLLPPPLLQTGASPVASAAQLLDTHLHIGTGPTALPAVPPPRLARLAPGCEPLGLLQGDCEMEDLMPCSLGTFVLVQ

In the case of `COc1cc(-c2c3c(OCc4cnc(C)s4)cc(-c4cnn(C)c4)cc3nn2C)cc(OC(F)F)c1C(=O)N1CC(O)(C(F)(F)F)C1` [Example 49, [2-(difluoromethoxy)-6-methoxy-4-[2-methyl-6-(1-methylpyrazol-4-yl)-4-[(2-methyl-1,3-thiazol-5-yl)methoxy]indazol-3-yl]phenyl]-[3-hydroxy-3-(trifluoromethyl)azetidin-1-yl]methanone], the figures for the IC50 against GST-tagged SIK1, on GST-tagged SIK2 and against GST-tagged SIK3 were 3.9 nM, 11.2 nM and 9.7 nM, respectively.

Consider `COc1cc(-c2c3c(OCC(F)F)cc(-c4cnn(C)c4)cc3nn2C)cc(OC(F)F)c1C(=O)N1CC(O)(C(F)(F)F)C1` [Example 41, [4-[4-(2,2-difluoroethoxy)-2-methyl-6-(1-methylpyrazol-4-yl)indazol-3-yl]-2-(difluoromethoxy)-6-methoxyphenyl]-[3-hydroxy-3-(trifluoromethyl)azetidin-1-yl]methanone], for which the IC50 came out at 1.3 nM at GST-tagged SIK1, 7.6 nM against GST-tagged SIK2 and 5.3 nM against GST-tagged SIK3.

In the case of `COc1cc(-c2c3c(C(F)F)cc(-c4cnn(CC5(O)CCC5)c4)cc3nn2C)cc(OC(F)F)c1C(=O)N[C@@H]1CC1(F)F` [Example 117, N-[(1R)-2,2-difluorocyclopropyl]-2-(difluoromethoxy)-4-[4-(difluoromethyl)-6-[1-[(1-hydroxycyclobutyl)methyl]pyrazol-4-yl]-2-methylindazol-3-yl]-6-methoxybenzamide], the IC50 was 12.5 nM at GST-tagged SIK1, 9.3 nM on GST-tagged SIK2 and 1 nM against GST-tagged SIK3.

For `COc1cc(-c2c3c(OCc4ccncc4)cc(-c4cnn(C)c4)cc3nn2C)cc(OC(F)F)c1C(=O)N1CC(O)(C(F)(F)F)C1` [Example 35, [2-(difluoromethoxy)-6-methoxy-4-[2-methyl-6-(1-methylpyrazol-4-yl)-4-(pyridin-4-ylmethoxy)indazol-3-yl]phenyl]-[3-hydroxy-3-(trifluoromethyl)azetidin-1-yl]methanone], the IC50 is 1.9 nM against GST-tagged SIK1, 3 nM against GST-tagged SIK2 and 12.9 nM against GST-tagged SIK3.

In the case of `COc1cc(-c2c3c(OC(F)F)cc(-c4cnn(C)c4)cc3nn2C)cc(OC(F)F)c1C(=O)N1CC(O)(C(F)(F)F)C1` [Example 14, [2-(difluoromethoxy)-4-[4-(difluoromethoxy)-2-methyl-6-(1-methylpyrazol-4-yl)indazol-3-yl]-6-methoxyphenyl]-[3-hydroxy-3-(trifluoromethyl)azetidin-1-yl]methanone], the concentration for half-maximal inhibition (IC50) on GST-tagged SIK1 was 3.6 nM; against GST-tagged SIK2, 8.8 nM; against GST-tagged SIK3 it was 2.4 nM.

Regarding `COc1cc(-c2c3c(C#N)cc(-c4cnn(Cc5ncco5)c4)cc3nn2C)cc(OC(F)F)c1C(=O)NCC1(F)CC1` [Example 75], the values for the IC50 against GST-tagged SIK1, at GST-tagged SIK2 and against GST-tagged SIK3 were 14.8 nM, 2.7 nM and 13.3 nM, respectively.

On to `COc1cc(-c2c3c(OC)cc(-c4cnn(C)c4)cc3nn2C)cc(OC(F)F)c1C(=O)N1CC(O)(C(F)(F)F)C1` [Example 13, [2-(difluoromethoxy)-6-methoxy-4-[4-methoxy-2-methyl-6-(1-methylpyrazol-4-yl)indazol-3-yl]phenyl]-[3-hydroxy-3-(trifluoromethyl)azetidin-1-yl]methanone], for which the IC50 against GST-tagged SIK1 was 4.6 nM; against GST-tagged SIK2, 7.2 nM; against GST-tagged SIK3 it was 3.8 nM.

With `COc1cc(-c2c3c(OCC(F)(F)F)cc(-c4cnn(C)c4)cc3nn2C)cc(OC(F)F)c1C(N)=O` [Example 157, 2-(difluoromethoxy)-6-methoxy-4-[2-methyl-6-(1-methylpyrazol-4-yl)-4-(2,2,2-trifluoroethoxy)indazol-3-yl]benzamide], the IC50 at GST-tagged SIK1 was found to be 5.1 nM; at GST-tagged SIK2 it was 1 nM; at GST-tagged SIK3, 7.9 nM.

Turning to `COc1cc(-c2cnc3cc(-c4cnn(C)c4)ccn23)cc2c1C(=O)N(C1CC1)CC2` [Comparative Example 3, 2-cyclopropyl-8-methoxy-6-[7-(1-methylpyrazol-4-yl)imidazo[1,2-a]pyridin-3-yl]-3,4-dihydroisoquinolin-1-one, reference compound], the IC50 against GST-tagged SIK1 was found to be 398 nM; against GST-tagged SIK2 it was 22.7 nM; at GST-tagged SIK3, 6.5 nM.

Turning to `COc1cc(-c2c3c(C(F)F)cc(-c4cnn(C)c4)cc3nn2C)cc(OC(F)F)c1C(N)=O` [Example 87, 2-(difluoromethoxy)-4-[4-(difluoromethyl)-2-methyl-6-(1-methylpyrazol-4-yl)indazol-3-yl]-6-methoxybenzamide], the IC50 was 18.5 nM against GST-tagged SIK1, 14.6 nM against GST-tagged SIK2 and 4.3 nM against GST-tagged SIK3.

In the case of `COc1cc(-c2c3c(C#N)cc(-c4cnn(CC(C)(C)O)c4)cc3nn2C)cc(OC(F)F)c1C(=O)N[C@@H]1CC1(F)F` [Example 114], the IC50 against GST-tagged SIK1 stood at 12.6 nM; against GST-tagged SIK2, 4.1 nM; against GST-tagged SIK3, 0.7 nM.

As for `COc1cc(-c2c3c(C#N)cc(-c4cnn(C)c4)cc3nn2C)cc2c1C(=O)NC[C@@H]2C` (single isomer, unassigned) [Example 88], the 50% inhibitory concentration (IC50) on GST-tagged SIK1 was 7.4 nM; against GST-tagged SIK2 it was 4.5 nM; against GST-tagged SIK3, 5.3 nM.

With `COc1cc(-c2c3c(C#N)cc(-c4cnn(CC(C)(C)O)c4)cc3nn2C)cc(OC(F)F)c1C(=O)NCC1(F)CC1` [Example 56], the IC50 against GST-tagged SIK1 is 20 nM; against GST-tagged SIK2 it was 16.1 nM; on GST-tagged SIK3 it was 11.8 nM.

`COc1cc(-c2c3c(C#N)cc(-c4cn[nH]c4)cc3nn2C)cc(OC(F)F)c1C(=O)N1CC(O)(C(F)(F)F)C1` [Example 70, 3-[3-(difluoromethoxy)-4-[3-hydroxy-3-(trifluoromethyl)azetidin-1-carbonyl]-5-methoxyphenyl]-2-methyl-6-(1H-pyrazol-4-yl)indazole-4-carbonitrile]: the IC50 on GST-tagged SIK1 was 15.3 nM; against GST-tagged SIK2, 11.2 nM; against GST-tagged SIK3, 3.7 nM.

For `COc1cc(-c2c3c(C#N)cc(-c4cnn(C)c4)cc3nn2C)cc(OC(F)F)c1C(=O)N1CC(O)(C(F)F)C1` [Example 25, 3-[3-(difluoromethoxy)-4-[3-(difluoromethyl)-3-hydroxyazetidin-1-carbonyl]-5-methoxyphenyl]-2-methyl-6-(1-methylpyrazol-4-yl)indazole-4-carbonitrile], the IC50 came out at 9.6 nM against GST-tagged SIK1, 10.5 nM against GST-tagged SIK2 and 12.8 nM at GST-tagged SIK3.

On to `COc1cc(-c2c3c(C#N)cc(-c4cnn(C)c4)cc3nn2C)cc(OC(F)F)c1C(=O)N[C@@H]1C[C@@H]1F` [Example 1, 4-[4-cyano-2-methyl-6-(1-methylpyrazol-4-yl)indazol-3-yl]-2-(difluoromethoxy)-N-[(1R,2S)-2-fluorocyclopropyl]-6-methoxybenzamide], for which the IC50 was determined as 5.9 nM against GST-tagged SIK1, 2.1 nM against GST-tagged SIK2 and 2.2 nM against GST-tagged SIK3.

On to `COc1cc(-c2c3c(OCc4cncc(F)c4)cc(-c4cnn(C)c4)cc3nn2C)cc(OC(F)F)c1C(=O)N1CC(O)(C(F)(F)F)C1` [Example 103, [2-(difluoromethoxy)-4-[4-[(5-fluoropyridin-3-yl)methoxy]-2-methyl-6-(1-methylpyrazol-4-yl)indazol-3-yl]-6-methoxyphenyl]-[3-hydroxy-3-(trifluoromethyl)azetidin-1-yl]methanone], for which the results for the IC50 against GST-tagged SIK1, at GST-tagged SIK2 and on GST-tagged SIK3 were 4.4 nM, 1.6 nM and 4.8 nM, respectively.

Turning to `COc1cc(-c2c3c(OCC4CCC4)cc(-c4cnn(C)c4)cc3nn2C)cc(OC(F)F)c1C(=O)N1CC(O)(C(F)(F)F)C1` [Example 27, [4-[4-(cyclobutylmethoxy)-2-methyl-6-(1-methylpyrazol-4-yl)indazol-3-yl]-2-(difluoromethoxy)-6-methoxyphenyl]-[3-hydroxy-3-(trifluoromethyl)azetidin-1-yl]methanone], the IC50 was 13.7 nM at GST-tagged SIK1, 12.7 nM against GST-tagged SIK2 and 16 nM at GST-tagged SIK3.

For the compound `CCCn1cc(-c2cc(C(F)F)c3c(-c4cc(OC)c(C(N)=O)c(OC(F)F)c4)n(C)nc3c2)cn1` [Example 113, 2-(difluoromethoxy)-4-[4-(difluoromethyl)-2-methyl-6-(1-propylpyrazol-4-yl)indazol-3-yl]-6-methoxybenzamide], the IC50 stood at 19.7 nM against GST-tagged SIK1, 15.6 nM at GST-tagged SIK2 and 2.7 nM on GST-tagged SIK3.

As for `CCn1cc(-c2cc(C#N)c3c(-c4cc(OC)c(C(N)=O)c(OC(F)F)c4)n(C)nc3c2)cn1` [Example 141, 4-[4-cyano-6-(1-ethylpyrazol-4-yl)-2-methylindazol-3-yl]-2-(difluoromethoxy)-6-methoxybenzamide], the values for the IC50 against GST-tagged SIK1, at GST-tagged SIK2 and against GST-tagged SIK3 were 17.6 nM, 2 nM and 2.7 nM, respectively.
